The values below come from patent publication US20250188110A1, “SPECIFIC SMALL MOLECULE INHIBITORS THAT BLOCK KMT9 METHYLTRANSFERASE ACTIVITY AND FUNCTION” (ALBERT-LUDWIGS-UNIVERSITÄT FREIBURG, priority 2021, published 2025).

A value given as a limit tells only on which side of the number the result lay.

Assay [1] concerns the target T1, KMT9 (Homo sapiens, UniProt Q9Y5N5).
T1 sequence (Q9Y5N5 1-214): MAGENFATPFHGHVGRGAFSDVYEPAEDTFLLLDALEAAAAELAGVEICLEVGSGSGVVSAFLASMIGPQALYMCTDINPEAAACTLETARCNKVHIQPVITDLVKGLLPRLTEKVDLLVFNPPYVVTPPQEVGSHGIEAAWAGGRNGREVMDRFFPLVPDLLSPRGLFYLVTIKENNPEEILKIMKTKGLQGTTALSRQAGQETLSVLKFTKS
T1 sequence (Q9UI30 1-120 isoform Q9UI30-2 partner): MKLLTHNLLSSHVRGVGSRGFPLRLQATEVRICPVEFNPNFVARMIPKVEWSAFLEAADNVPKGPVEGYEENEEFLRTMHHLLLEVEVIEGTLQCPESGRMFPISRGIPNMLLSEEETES
Nature of the assay: Microscale thermophoresis (MST) KMT9 binding. The settings on record: microscale thermophoresis, His-tag labelled KMT9 (20 nM); read-out: MST. In a few lines:
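Kd from microscale thermophoresis: compound series against 20 nM His-KMT9 labelled via RED-Tris-NTA, buffer 25 mM HEPES (pH 7.5)/100 mM NaCl/1 mM DTT/0.05% Tween, 40% MST power, 100% LED. Reported as classes: A ≤10 nM, B >10–100 nM, C >100–1000 nM, D >1000 nM.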
Background: In MST a laser heats a spot of the sample, and binding alters the fluorescence response.

The target in assay [2] is T1, KMT9. Nature of the assay: KMT9 methyltransferase inhibition assay, 3H-SAM scintillation (entries 1-154). Type of assay: biochemical. To be noted: entries 1-154: 3H-SAM assay, 25 nM KMT9, 5 μM ETF1. The method, boiled down: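 Tritium transfer from SAM (0.3 μM 3H-SAM, 0.7 μM unlabelled, final) to 5 μM ETF1 fragment by 25 nM KMT9 was measured after 2 h at 30° C, pH 8.5. Precipitated peptide was collected on filters and scintillation counted; IC50 came from a four-parameter fit of inhibition normalised to controls.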

Assay [3] concerns the target T1, KMT9. Briefly: KMT9 thermal shift assay (SyproOrange). Type of assay: binding. To be noted: ΔTm; 500 µM compound, 2 μM KMT9, 5X SO; read-out: Thermal shift. The method, boiled down: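 ΔTm versus DMSO-only control is reported in bins (>20 K, 15–20 K, 10–15 K, ≤10 K), using Tm from Boltzmann sigmoidal fits of SyproOrange melt curves. KMT9 with compound in pH 8.5 BTP buffer containing MgCl2 and DTT was preincubated at 25° C, then ramped 1° C per 15 s up to 95° C.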

Consider `CNc1ncnc2c1ccn2[C@@H]1C[C@H](CN2CCC23CCNC3)[C@@H](O)[C@H]1O` (stereo partly drawn) [446 (318), (1S,2R,3R,5R)-3-{1,6-Diazaspiro[3.4]octan-1-ylmethyl}-5-[4-(methylamino)pyrrolo[2,3-d]pyrimidin-7-yl]cyclopentane-1,2-diol], for which the Kd on KMT9 [1] is more than 1000 nM. For the same compound, the IC50 (usually the point on the concentration scale where inhibition reaches its midpoint) at KMT9 [2] is more than 10000 nM. The ΔTm at 500 µM at KMT9 [3] is not above 10 °C.

For the compound `CNc1ncnc2c1ccn2[C@@H]1C[C@H](CNCCC(=O)NCCc2ccccc2)[C@@H](O)[C@H]1O` (racemic) [434 (306), 3-((((1R,2R,3S,4R)-2,3-dihydroxy-4-(4-(methylamino)-7H-pyrrolo[2,3-d]pyrimidin-7-yl)cyclopentyl)methyl)amino)-N-phenethylpropanamide and 3-((((1S,2R,3S,4R)-2,3-dihydroxy-4-(4-(methylamino)-7H-pyrrolo[2,3-d]pyrimidin-7-yl)cyclopentyl)methyl)amino)-N-phenethylpropanamide], the Kd at KMT9 [1] was more than 1000 nM. Also, the IC50 against KMT9 [2] was more than 10000 nM. Also, the ΔTm at 500 µM on KMT9 [3] is not above 10 °C.

With `Nc1ncnc2c1ncn2[C@@H]1O[C@H](C(=O)NCCCNCCc2cccc(Oc3ccccc3)c2)[C@@H](O)[C@H]1O` [299 (196), (2S,3S,4R,5R)-5-(6-amino-9H-purin-9-yl)-3,4-dihydroxy-N-(3-((3-phenoxyphenethyl)amino)propyl) tetrahydrofuran-2-carboxamide], the Kd on KMT9 [1] was in the range of 100 to 1000 nM. In addition, the IC50 against KMT9 [2] lay in the range of 1000 to 10000 nM. Moreover, the ΔTm at 500 µM at KMT9 [3] is 10 to 15 °C.

On to `CNc1ncnc2c1ccn2[C@@H]1C[C@H](CNCCCNCCc2ccccc2)[C@@H](O)[C@H]1O` [291 (188), (1R,2S,3R,5R)-3-(4-(methylamino)-7H-pyrrolo[2,3-a]pyrimidin-7-yl)-5-(((3-(phenethylamino)propyl)amino)methyl) cyclopentane-1,2-diol], for which, on KMT9 [1], the Kd is more than 1000 nM. Also, the IC50 against KMT9 [2] lay in the range of 1000 to 10000 nM. Also, at KMT9 [3], the ΔTm at 500 µM fell in the range of 10 to 15 °C.

With `CNc1ncnc2c1ccn2[C@@H]1C[C@H](CN(CCCNCCc2ccccc2)c2ccccc2)[C@@H](O)[C@H]1O` [440 (312), (1R,2S,3R,5R)-3-(4-(Methylamino)-7H-pyrrolo[2,3-d]pyrimidin-7-yl)-5-(((3-(phenethylamino)propyl)(phenyl)amino)methyl)cyclopentane-12-diol], the Kd on KMT9 [1] is more than 1000 nM. This compound yielded an IC50 against KMT9 [2] of more than 10000 nM. Besides, the ΔTm at 500 µM at KMT9 [3] was not above 10 °C.

As to `Cn1cc(-c2cn([C@@H]3C[C@H](CNCCCNCCc4ccccc4)[C@@H](O)[C@H]3O)c3ncnc(N)c23)cn1` [478 (352), (1R,2S,3R,5R)-3-(4-Amino-5-(1-methyl-1H-pyrazol-4-yl)-7H-pyrrolo[2,3-d]pyrimidin-7-yl)-5-(((3-(phenethylamino)propyl)amino)methyl) cyclopentane-1,2-diol], the Kd at KMT9 [1] lay in the range of 10 to 100 nM. This compound also yielded an IC50 against KMT9 [2] of 1000 to 10000 nM. Also, the ΔTm at 500 µM on KMT9 [3] lay within 15 to 20 °C.

With `CNc1ncnc2c1ccn2[C@@H]1C[C@H](CCCCNCCc2ccccc2)[C@@H](O)[C@H]1O` [423 (294), (1R,2S,3R,5S)-3-(4-(methylamino)-7H-pyrrolo[2,3-d]pyrimidin-7-yl)-5-(4-(phenethylamino)butyl) cyclopentane-1,2-diol], on KMT9 [1], the Kd is more than 1000 nM. The compound also showed an IC50 on KMT9 [2] of more than 10000 nM. Moreover, the ΔTm at 500 µM at KMT9 [3] was not above 10 °C.

For the compound `Nc1ncnc2c1c(-c1ccn[nH]1)cn2[C@@H]1C[C@H](CNCCCNCCc2ccccc2)[C@@H](O)[C@H]1O` [472 (346), (1R,2S,3R,5R)-3-(4-Amino-5-(1H-pyrazol-5-yl)-7H-pyrrolo[2,3-d]pyrimidin-7-yl)-5-(((3-(phenethylamino)propyl)amino)methyl) cyclopentane-1,2-diol], the Kd on KMT9 [1] lay in the range of 10 to 100 nM. On KMT9 [2], this compound yielded an IC50 of 100 to 1000 nM. Moreover, at KMT9 [3], the ΔTm at 500 µM lay within 15 to 20 °C.

Take `Nc1ncnc2c1c(C1CC1)cn2[C@@H]1C[C@H](CNCCCNCCc2cccc(Oc3ccccc3)c2)[C@@H](O)[C@H]1O` [460 (333), (1R,2S,3R,5R)-3-(4-Amino-5-cyclopropyl-7H-pyrrolo[2,3-d]pyrimidin-7-yl)-5-(((3-((3-phenoxyphenethyl)amino)propyl)amino)methyl) cyclopentane-1,2-diol]: the Kd at KMT9 [1] is 10 to 100 nM. On KMT9 [2], this compound had an IC50 of 100 to 1000 nM. For the same compound, the ΔTm at 500 µM on KMT9 [3] is 15 to 20 °C.

Consider `Nc1ncnc2c1c(-c1ccncn1)cn2[C@@H]1C[C@H](CNCCCNCCc2ccccc2)[C@@H](O)[C@H]1O` [471 (345), (1R,2S,3R,5R)-3-(4-Amino-5-(pyrimidin-4-yl)-7H-pyrrolo[2,3-d]pyrimidin-7-yl)-5-(((3-(phenethylamino)propyl)amino)methyl) cyclopentane-1,2-diol], for which the Kd on KMT9 [1] is 100 to 1000 nM. Further, on KMT9 [2], the IC50 was in the range of 100 to 1000 nM. The ΔTm at 500 µM on KMT9 [3] was 15 to 20 °C.

With `CNc1ncnc2c1ccn2[C@@H]1C[C@H](C[S+]([O-])CCNCCc2ccccc2)[C@@H](O)[C@H]1O` (stereo partly drawn) [432 (304), (1R,2S,3R,5S)-3-(4-(Methylamino)-7H-pyrrolo[2,3-d]pyrimidin-7-yl)-5-(((2-(phenethylamino)ethyl)sulfinyl)methyl) cyclopentane-1,2-diol], at KMT9 [1], the Kd is more than 1000 nM. Also, the half-maximal inhibitory concentration (IC50) against KMT9 [2] is more than 10000 nM. In addition, the ΔTm at 500 µM on KMT9 [3] was not above 10 °C.

As for `CNc1ncnc2c1ccn2[C@@H]1C[C@H](CN(CCCN)c2cn[nH]c2Br)[C@@H](O)[C@H]1O` [Compound 606, (1S,2R,3R,5R)-3-{[(3-Aminopropyl)(3-bromo-2H-pyrazol-4-yl)amino]methyl}-5-[4-(methylamino)pyrrolo[2,3-d]pyrimidin-7-yl]cyclopentane-1,2-diol], the Kd at KMT9 [1] was more than 1000 nM. The compound also gave an IC50 on KMT9 [2] of more than 10000 nM. At KMT9 [3], the ΔTm at 500 µM was not above 10 °C.

For `CNc1ncnc2c1ccn2[C@@H]1C[C@H](CN(CCCNCCc2cccc(Oc3ccccc3)c2)NC)[C@@H](O)[C@H]1O` [367 (271), (1S,2R,3R,5R)-3-((2-methyl-1-(3-((3-phenoxyphenethyl)amino)propyl) hydrazineyl)methyl)-5-(4-(methylamino)-7H-pyrrolo[2,3-d]pyrimidin-7-yl) cyclopentane-1,2-diol], the Kd on KMT9 [1] is more than 1000 nM. Further, the IC50 against KMT9 [2] was more than 10000 nM. The ΔTm at 500 µM at KMT9 [3] was not above 10 °C.

`CNc1ncnc2c1c(C)cn2[C@@H]1O[C@H](CNCCCNCCc2ccccc2)[C@@H](O)[C@H]1O` [311 (210), (2R,3R,45,5R)-2-(5-methyl-4-(methylamino)-7//-pyrrolo[2,3-a]pyrimidin-7-yl)-5-(((3-(phenethylamino)propyl)amino)methyl)tetrahydrofuran-3,4-diol]: the Kd at KMT9 [1] was more than 1000 nM. Further, the IC50 on KMT9 [2] was more than 10000 nM. For the same compound, the ΔTm at 500 µM at KMT9 [3] is not above 10 °C.

Regarding `CNc1ncnc2c1ccn2[C@@H]1C[C@H](CNCC2CNCCO2)[C@@H](O)[C@H]1O` (mixture of isomers) [435 (307), (1R,2S,3R,5R)-3-(4-(methylamino)-7H-pyrrolo[2,3-d]pyrimidin-7-yl)-5-(((morpholin-2-ylmethyl)amino)methyl) cyclopentane-1,2-diol and (1R,2S,3R,5S)-3-(4-(methylamino)-7H-pyrrolo[2,3-d]pyrimidin-7-yl)-5-(((morpholin-2-ylmethyl)amino)methyl) cyclopentane-1,2-diol], the Kd at KMT9 [1] was more than 1000 nM. The IC50 against KMT9 [2] was more than 10000 nM. Besides, the ΔTm at 500 µM at KMT9 [3] was not above 10 °C.
